What was measured:
Format in all cases: cell-based
[1] = molecular target: T1, rat GluN1/GluN2C (Rattus norvegicus, UniProt P35439+Q00961); experiment: Two-electrode voltage-clamp recording in Xenopus laevis oocytes expressing recombinant rat GluN1/GluN2C; conditions: for remaining activity at 30 µM: 30 μM test compound, current ratio, oocytes, read-out: I30 μM/Icontrol (mean ± SEM, %) GluN2C; for IC50: Tables 1 and 2, read-out: IC50 (μM) [95% Confidence Interval] GluN2C
T1 construct: expressed in transfected cells; host or cells: Xenopus laevis oocytes (cRNA injection, GluN1/GluN2 ratio 1:2)
Description: (§1) Two-electrode voltage-clamp recording was performed in Xenopus laevis oocytes injected with mRNA to express recombinant rat GluN1/GluN2A, GluN1/GluN2B, GluN1/GluN2C, and GluN1/GluN2D. cDNAs for rat NMDA subunits GluN1-la (GenBank U08261; hereafter GluN1), GluN2A (GenBank D13211), GluN2B (GenBank U11419), GluN2C (GenBank M91563), and GluN2D (GenBank L31611) were provided by Drs. S. Heinemann from Salk Institute, S. Nakanishi from Kyoto University, and P. Seeburg from the University of Heidelberg. An automatic injector (Nanoject II, Drummond Scientific) was used for cRNA injection using the pipettes filled with mineral oil. The cRNA that transcribed in vitro via the mMessage Machine kit (Ambion) was diluted with nuclease-free water, and then injected at a GluN1/GluN2 ratio of 1:2. The oocytes were stored in Barth's solution that contained 88 mM NaCl, 5.0 mM Tris-HCl, 2.4 mM NaHCO3, 1.0 mM KCl, 0.84 mM MgSO4, 0.41 mM CaCl2), 0.33 mM Ca(NO3)2, 0.1 mg/ml gentamycin sulfate, 1.0 U/ml penicillin, and 1 μg/ml streptomycin at pH 7.4 and temperatures of 15-17° C. for two to five days before the two-electrode voltage-clamp recordings.
(§2) During recording, the oocytes were placed in a perfusion chamber and continually washed with the recording solution containing 90 mM NaCl, 1.0 mM KCl, 0.50 mM BaCl2, 0.005 mM EDTA, and 10 mM HEPES at pH 7.4 and a temperature of 23° C. Glass electrodes with a tip resistance of 0.5 to 2.5 MΩ were obtained from thin-walled glass capillary tubes. Voltage electrodes and current electrodes were filled with 0.3 M and 3.0 M KCl, respectively. The recordings were executed with the oocytes membrane potential holding at −40 mV by an OC-725 amplifier (Warner Instrument Co.). All compounds were dissolved in dimethyl sulfoxide (DMSO) as 20 mM stock solutions and further diluted to reach the desired concentration (0.05-0.5% (vol/vol) DMSO) in recording solution comprised of 30 µM glycine and 100 µM glutamate. In general, each compound was tested in multiple oocytes. To evaluate the inhibitory efficacy of the compounds, concentration-response curves were plotted using the average two-electrode voltage-clamp recording results and fitted by the following equation:
(§3) response=100/{1+[(inhibitor concentration)/IC50]^N} • where IC50 is the concentration of compound that inhibit half maximal of the current response and N is the Hill slope.

[2] = molecular target: T2, rat GluN1/GluN2A (Rattus norvegicus, UniProt P35439+Q00959); experiment: Two-electrode voltage-clamp recording in Xenopus laevis oocytes expressing recombinant rat GluN1/GluN2A; conditions: for remaining activity at 30 µM: 30 μM test compound, current ratio, oocytes, read-out: I30 μM/Icontrol (mean ± SEM, %) GluN2A; for IC50: Tables 1 and 2, read-out: IC50 (μM) [95% Confidence Interval] GluN2A
T2 construct: expressed in transfected cells; host or cells: Xenopus laevis oocytes (cRNA injection, GluN1/GluN2 ratio 1:2)
Description: as §1, §2, §3

[3] = molecular target: T3, rat GluN1/GluN2B (Rattus norvegicus, UniProt P35439+Q00960); experiment: Two-electrode voltage-clamp recording in Xenopus laevis oocytes expressing recombinant rat GluN1/GluN2B; conditions: for remaining activity at 30 µM: 30 μM test compound, current ratio, oocytes, read-out: I30 μM/Icontrol (mean ± SEM, %) GluN2B; for IC50: Tables 1 and 2, read-out: IC50 (μM) [95% Confidence Interval] GluN2B
T3 construct: expressed in transfected cells; host or cells: Xenopus laevis oocytes (cRNA injection, GluN1/GluN2 ratio 1:2)
Description: as §1, §2, §3

[4] = molecular target: T4, rat GluN1/GluN2D (Rattus norvegicus, UniProt Q62645); experiment: Two-electrode voltage-clamp recording in Xenopus laevis oocytes expressing recombinant rat GluN1/GluN2D; conditions: for Subunit Selectivity 2A IC50/2D IC50: ratio of GluN2A IC50 to GluN2D IC50; for Subunit Selectivity 2B IC50/2D IC50: ratio of GluN2B IC50 to GluN2D IC50; for Current ratio I/Icontrol (mean ± SEM, %) GluN2D: current ratio reported for 10 μM test compound (footnote c)
T4 construct: expressed in transfected cells; host or cells: Xenopus laevis oocytes (cRNA injection, GluN1/GluN2 ratio 1:2)
Description: as §1, §2, §3

[5] = molecular target: T5, rat GluN1/GluN2D (Rattus norvegicus, UniProt P35439+Q62645); experiment: as above; conditions: for remaining activity at 30 µM: 30 μM test compound, current ratio, oocytes, read-out: I30 μM/Icontrol (mean ± SEM, %) GluN2D; for IC50: Tables 1 and 2, read-out: IC50 (μM) [95% Confidence Interval] GluN2D
T5 construct: expressed in transfected cells; host or cells: Xenopus laevis oocytes (cRNA injection, GluN1/GluN2 ratio 1:2)
Description: as §1, §2, §3

[6] = molecular target: T6, rat GluN1/GluN2B (Rattus norvegicus, UniProt Q00960); experiment: Two-electrode voltage-clamp recording in Xenopus laevis oocytes expressing recombinant rat GluN1/GluN2B
T6 construct: expressed in transfected cells; host or cells: Xenopus laevis oocytes (cRNA injection, GluN1/GluN2 ratio 1:2)
Description: as §1, §2, §3

[7] = molecular target: T7, rat GluN1/GluN2C (Rattus norvegicus, UniProt Q00961); experiment: Two-electrode voltage-clamp recording in Xenopus laevis oocytes expressing recombinant rat GluN1/GluN2C; conditions: current ratio reported for 10 μM test compound (footnote c)
T7 construct: expressed in transfected cells; host or cells: Xenopus laevis oocytes (cRNA injection, GluN1/GluN2 ratio 1:2)
Description: as §1, §2, §3

[8] = molecular target: T8, rat GluN1/GluN2A (Rattus norvegicus, UniProt Q00959); experiment: Two-electrode voltage-clamp recording in Xenopus laevis oocytes expressing recombinant rat GluN1/GluN2A; conditions: current ratio reported for 10 μM test compound (footnote c)
T8 construct: expressed in transfected cells; host or cells: Xenopus laevis oocytes (cRNA injection, GluN1/GluN2 ratio 1:2)
Description: as §1, §2, §3

[9] = current ratio reported for 10 μM test compound (footnote c)

T5 sequence (Q62645 28-1323, other chains not shown): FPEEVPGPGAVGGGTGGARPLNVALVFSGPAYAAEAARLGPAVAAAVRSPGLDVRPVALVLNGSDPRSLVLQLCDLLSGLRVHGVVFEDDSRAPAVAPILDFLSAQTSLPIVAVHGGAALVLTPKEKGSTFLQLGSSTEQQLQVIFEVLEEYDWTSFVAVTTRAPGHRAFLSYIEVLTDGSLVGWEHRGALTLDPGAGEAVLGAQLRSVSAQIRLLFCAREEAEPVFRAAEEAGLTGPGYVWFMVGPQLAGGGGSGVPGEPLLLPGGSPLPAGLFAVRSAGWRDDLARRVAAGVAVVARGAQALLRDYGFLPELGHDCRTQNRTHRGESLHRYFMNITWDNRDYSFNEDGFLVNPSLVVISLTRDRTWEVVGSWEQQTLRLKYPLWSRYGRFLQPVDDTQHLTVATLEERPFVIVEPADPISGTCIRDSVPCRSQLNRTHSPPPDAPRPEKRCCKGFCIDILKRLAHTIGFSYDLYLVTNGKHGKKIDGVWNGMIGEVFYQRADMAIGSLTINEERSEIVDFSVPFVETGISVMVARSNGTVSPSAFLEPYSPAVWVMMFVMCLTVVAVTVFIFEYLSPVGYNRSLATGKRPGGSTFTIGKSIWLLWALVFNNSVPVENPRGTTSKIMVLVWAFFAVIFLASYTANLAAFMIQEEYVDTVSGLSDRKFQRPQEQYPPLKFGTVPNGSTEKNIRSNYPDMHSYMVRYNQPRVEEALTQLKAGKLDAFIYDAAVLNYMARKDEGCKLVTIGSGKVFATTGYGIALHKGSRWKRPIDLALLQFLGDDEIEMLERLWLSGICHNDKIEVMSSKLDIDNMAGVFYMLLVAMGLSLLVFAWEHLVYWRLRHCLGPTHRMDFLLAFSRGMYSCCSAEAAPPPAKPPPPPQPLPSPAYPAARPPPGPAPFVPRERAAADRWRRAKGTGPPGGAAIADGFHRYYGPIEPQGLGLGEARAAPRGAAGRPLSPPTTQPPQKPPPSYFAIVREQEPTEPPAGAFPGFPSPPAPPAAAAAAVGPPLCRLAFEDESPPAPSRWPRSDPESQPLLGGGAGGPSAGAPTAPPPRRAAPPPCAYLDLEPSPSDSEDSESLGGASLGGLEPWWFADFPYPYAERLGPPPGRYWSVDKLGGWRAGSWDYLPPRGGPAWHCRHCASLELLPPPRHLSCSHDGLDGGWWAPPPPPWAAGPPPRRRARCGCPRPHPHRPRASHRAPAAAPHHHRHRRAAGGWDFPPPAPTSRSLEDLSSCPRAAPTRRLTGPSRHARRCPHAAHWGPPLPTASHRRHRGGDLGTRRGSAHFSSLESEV
T4 sequence (Q62645 28-1323, other chains not shown): as above
T2 sequence (Q00959 23-1464, other chains not shown): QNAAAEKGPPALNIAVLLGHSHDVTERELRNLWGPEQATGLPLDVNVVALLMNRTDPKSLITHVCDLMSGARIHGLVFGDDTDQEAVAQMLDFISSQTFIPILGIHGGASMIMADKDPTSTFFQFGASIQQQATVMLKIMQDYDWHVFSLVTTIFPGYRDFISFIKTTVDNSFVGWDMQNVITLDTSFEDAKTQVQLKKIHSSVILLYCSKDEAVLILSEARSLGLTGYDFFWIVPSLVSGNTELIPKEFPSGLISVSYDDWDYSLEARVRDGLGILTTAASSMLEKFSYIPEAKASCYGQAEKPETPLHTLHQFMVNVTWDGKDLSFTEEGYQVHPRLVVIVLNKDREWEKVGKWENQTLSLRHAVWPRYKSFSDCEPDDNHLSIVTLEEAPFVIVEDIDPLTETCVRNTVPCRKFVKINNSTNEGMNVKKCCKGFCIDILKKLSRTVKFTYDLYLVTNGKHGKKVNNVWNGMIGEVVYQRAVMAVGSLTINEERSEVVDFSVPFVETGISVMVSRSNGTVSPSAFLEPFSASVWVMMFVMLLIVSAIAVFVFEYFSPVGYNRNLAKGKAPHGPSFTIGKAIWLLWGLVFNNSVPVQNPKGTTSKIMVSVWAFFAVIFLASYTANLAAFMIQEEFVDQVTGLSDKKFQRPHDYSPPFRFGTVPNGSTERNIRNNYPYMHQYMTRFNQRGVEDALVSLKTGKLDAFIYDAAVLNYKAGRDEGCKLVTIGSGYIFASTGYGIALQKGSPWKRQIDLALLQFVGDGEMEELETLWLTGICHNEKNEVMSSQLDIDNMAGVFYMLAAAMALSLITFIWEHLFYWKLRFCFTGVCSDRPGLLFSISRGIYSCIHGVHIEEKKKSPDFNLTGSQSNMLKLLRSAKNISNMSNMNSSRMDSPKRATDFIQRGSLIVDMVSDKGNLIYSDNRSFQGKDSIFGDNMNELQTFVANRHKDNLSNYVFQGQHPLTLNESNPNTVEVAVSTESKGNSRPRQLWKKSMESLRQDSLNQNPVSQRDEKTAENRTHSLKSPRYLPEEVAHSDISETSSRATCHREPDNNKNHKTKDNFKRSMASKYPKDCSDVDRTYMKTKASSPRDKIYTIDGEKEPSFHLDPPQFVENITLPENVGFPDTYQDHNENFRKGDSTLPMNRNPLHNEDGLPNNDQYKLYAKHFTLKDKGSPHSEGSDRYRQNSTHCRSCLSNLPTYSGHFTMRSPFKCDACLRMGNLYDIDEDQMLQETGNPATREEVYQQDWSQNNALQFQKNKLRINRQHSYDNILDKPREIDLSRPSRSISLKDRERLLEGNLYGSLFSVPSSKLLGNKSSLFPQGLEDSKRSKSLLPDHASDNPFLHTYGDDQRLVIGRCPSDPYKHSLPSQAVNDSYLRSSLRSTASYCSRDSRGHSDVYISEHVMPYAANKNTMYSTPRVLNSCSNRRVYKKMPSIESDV
T1 sequence (Q00961 20-1237, other chains not shown): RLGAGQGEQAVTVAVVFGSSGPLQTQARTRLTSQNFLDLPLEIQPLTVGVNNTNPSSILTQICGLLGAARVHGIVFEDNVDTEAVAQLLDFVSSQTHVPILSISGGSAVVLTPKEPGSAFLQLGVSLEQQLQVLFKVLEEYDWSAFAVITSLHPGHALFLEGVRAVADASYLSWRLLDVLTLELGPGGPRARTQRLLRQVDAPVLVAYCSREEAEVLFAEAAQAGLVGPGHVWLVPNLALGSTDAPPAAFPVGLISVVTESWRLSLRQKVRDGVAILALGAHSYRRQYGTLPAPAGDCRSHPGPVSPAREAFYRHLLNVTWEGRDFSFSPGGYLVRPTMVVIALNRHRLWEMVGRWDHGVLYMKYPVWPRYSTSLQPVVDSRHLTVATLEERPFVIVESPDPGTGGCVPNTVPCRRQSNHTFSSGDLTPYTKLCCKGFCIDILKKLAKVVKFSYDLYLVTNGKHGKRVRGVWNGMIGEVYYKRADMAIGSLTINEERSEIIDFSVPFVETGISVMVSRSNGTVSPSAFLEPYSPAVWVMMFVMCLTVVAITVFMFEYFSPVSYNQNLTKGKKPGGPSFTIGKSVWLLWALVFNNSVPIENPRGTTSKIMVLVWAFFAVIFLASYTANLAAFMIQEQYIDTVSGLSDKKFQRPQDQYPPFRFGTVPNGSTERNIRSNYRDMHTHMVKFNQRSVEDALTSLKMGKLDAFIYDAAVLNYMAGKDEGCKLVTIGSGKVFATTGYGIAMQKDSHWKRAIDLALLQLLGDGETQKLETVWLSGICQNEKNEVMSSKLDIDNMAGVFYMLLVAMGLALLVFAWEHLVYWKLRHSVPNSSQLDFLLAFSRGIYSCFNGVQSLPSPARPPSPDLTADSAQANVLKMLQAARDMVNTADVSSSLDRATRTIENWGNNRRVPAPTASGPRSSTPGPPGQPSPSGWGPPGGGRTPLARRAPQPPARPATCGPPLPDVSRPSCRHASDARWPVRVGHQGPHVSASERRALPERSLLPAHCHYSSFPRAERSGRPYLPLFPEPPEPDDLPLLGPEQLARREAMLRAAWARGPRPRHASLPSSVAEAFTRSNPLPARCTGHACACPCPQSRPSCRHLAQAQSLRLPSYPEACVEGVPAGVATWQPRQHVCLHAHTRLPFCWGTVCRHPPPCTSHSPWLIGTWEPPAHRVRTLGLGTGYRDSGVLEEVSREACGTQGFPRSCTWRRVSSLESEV
T7 sequence (Q00961 20-1237, other chains not shown): as above

Row | SMILES | remaining activity at 30 µM [1] [%] | IC50 [1] [µM] | remaining activity at 30 µM [2] [%] | IC50 [2] [µM] | remaining activity at 30 µM [3] [%] | IC50 [3] [µM] | Subunit Selectivity 2A IC50/2D IC50 [4] | Subunit Selectivity 2B IC50/2D IC50 [4] | remaining activity at 30 µM [5] [%] | IC50 [5] [µM] | Current ratio I/Icontrol (mean ± SEM, %) GluN2B ([6]; current ratio reported for 3 μM test compound (footnote d, Table 2)) | Current ratio I/Icontrol (mean ± SEM, %) GluN2C [7] | Current ratio I/Icontrol (mean ± SEM, %) GluN2A [8] | Current ratio I/Icontrol (mean ± SEM, %) GluN2B [6, 9] | Current ratio I/Icontrol (mean ± SEM, %) GluN2D [4]
1 | O=C(O)CC(F)(F)C(=O)N1N=C(c2c(-c3ccc(Br)cc3)c3ccsc3[nH]c2=O)CC1c1ccc(Cl)cc1 (stereo not drawn) [57(a), 4-[5-[4-(4-Bromophenyl)-6-oxo-7H-thieno[2,3-b]pyridin-5-yl]-3-(4-chlorophenyl)-3,4-dihydropyrazol-2-yl]-3,3-difluoro-4-oxo-butanoic acid] | 22 ± 1.5 | 0.56 | 47.6 ± 5.5 | 11 | 37.7 ± 3.5 | 19 | 24 | 44 | 19 ± 3 | 0.43 | – | – | – | – | –
2 | O=C(O)CC(F)(F)C(=O)N1N=C(c2c(-c3ccc(Cl)cc3)c3ccsc3[nH]c2=O)CC1c1ccc(Cl)cc1 (stereo not drawn) [57(b), 4-[3-(4-Chlorophenyl)-5-[4-(4-chlorophenyl)-6-oxo-7H-thieno[2,3-b]pyridin-5-yl]-3,4-dihydropyrazol-2-yl]-3,3-difluoro-4-oxo-butanoic acid] | 6.9 ± 2.5 | 0.32 | 86 ± 7.4 | – | – | – | – | – | 5.9 ± 2.7 | 0.25 | 88 ± 4.6^d (n = 1, 4) % | – | – | – | –
3 | Cc1cc(-c2ccc(Cl)cc2)c(C2=NN(C(=O)C(F)(F)CC(=O)O)C(c3ccc(Cl)cc3)C2)c(=O)[nH]1 (stereo not drawn) [Compound 55, 4-[3-(4-Chlorophenyl)-5-[4-(4-chlorophenyl)-6-methyl-2-oxo-1H-pyridin-3-yl]-3,4-dihydropyrazol-2-yl]-3,3-difluoro-4-oxo-butanoic acid] | 29 ± 2 | 14 | 86 ± 4.4 | – | 55 ± 3 | 41 | – | 3 | 26 ± 1.8 | 12 | – | – | – | – | –
4 | Cc1[nH]c(=O)c(C2=NN(C(=O)C(F)(F)CC(=O)O)C(c3ccc(Cl)cc3)C2)c(-c2ccc(Cl)cc2)c1C (stereo not drawn) [Compound 56, 4-[3-(4-Chlorophenyl)-5-[4-(4-chlorophenyl)-5,6-dimethyl-2-oxo-1H-pyridin-3-yl]-3,4-dihydropyrazol-2-yl]-3,3-difluoro-4-oxo-butanoic acid] | 2.7 ± 0.32 | 1.9 | 71 ± 5 | 42 | 58 ± 2 | 47 | – | – | 7.9 ± 2.9 | 2.6 | – | – | – | – | –
5 | O=C(O)CC(F)(F)C(=O)N1N=C(c2c(-c3ccc(Cl)cc3)c3cccnc3[nH]c2=O)CC1c1ccc(Cl)cc1 (stereo not drawn) [Compound 88, 4-[3-(4-Chlorophenyl)-5-[4-(4-chlorophenyl)-2-oxo-1H-1,8-naphthyridin-3-yl]-3,4-dihydropyrazol-2-yl]-3,3-difluoro-4-oxo-butanoic acid] | 6.6 ± 0.9 | 2.1 | 49 ± 7.3 | 45 | 71 ± 0.9 | 67 | 35 | 52 | 3.8 ± 0.6 | 1.3 | – | – | – | – | –
6 | O=C(CCc1nnn[nH]1)N1N=C(c2c(-c3ccc(Cl)cc3)c3ccccc3[nH]c2=O)CC1c1ccc(Cl)cc1 (stereo not drawn) [Compound 109, 4-(4-Chlorophenyl)-3-[3-(4-chlorophenyl)-2-[3-(1H-tetrazol-5-yl)propanoyl]-3,4-dihydropyrazol-5-yl]-1H-quinolin-2-one] | 2.3 ± 0.5 | – | 29 ± 4.1 | – | 48 ± 1.9 | – | 42 | 56 | 2.4 ± 1.6 | – | – | – | – | – | –
7 | O=C(O)CC(F)(F)C(=O)N1N=C(c2c(-c3ccc(Cl)cc3)c3ccncc3[nH]c2=O)CC1c1ccc(Cl)cc1 (stereo not drawn) [Compound 120, 4-[3-(4-Chlorophenyl)-5-[4-(4-chlorophenyl)-2-oxo-1H-1,7-naphthyridin-3-yl]-3,4-dihydropyrazol-2-yl]-3,3-difluoro-4-oxo-butanoic acid] | – | 2.1 | – | – | – | – | – | – | – | 0.8 | – | 18 ± 1.0^c (n = 3, 11) % | 77 ± 4.8^c (n = 2, 7) % | 82 ± 1.7^c (n = 2, 8) % | 7.4 ± 0.9^c (n = 3, 10) %
8 | O=C(CCc1nccs1)N1N=C(c2c(-c3ccc(Cl)cc3)c3ccccc3[nH]c2=O)CC1c1ccc(Cl)cc1 (stereo not drawn) [Compound 123, 4-(4-Chlorophenyl)-3-[3-(4-chlorophenyl)-2-(3-thiazol-2-ylpropanoyl)-3,4-dihydropyrazol-5-yl]-1H-quinolin-2-one] | – | – | – | – | – | – | – | – | – | – | – | 71 ± 4.8^c (n = 2, 8) % | 96 ± 1.8^c (n = 2, 8) % | 94 ± 1.7^c (n = 2, 8) % | 67 ± 5.1^c (n = 2, 8) %

Next, values leading:

Row | remaining activity at 30 µM [1] [%] | IC50 [1] [µM] | remaining activity at 30 µM [2] [%] | IC50 [2] [µM] | remaining activity at 30 µM [3] [%] | IC50 [3] [µM] | Subunit Selectivity 2A IC50/2D IC50 [4] | Subunit Selectivity 2B IC50/2D IC50 [4] | remaining activity at 30 µM [5] [%] | IC50 [5] [µM] | Current ratio I/Icontrol (mean ± SEM, %) GluN2B ([6]; current ratio reported for 3 μM test compound (footnote d, Table 2)) | Current ratio I/Icontrol (mean ± SEM, %) GluN2C [7] | Current ratio I/Icontrol (mean ± SEM, %) GluN2A [8] | Current ratio I/Icontrol (mean ± SEM, %) GluN2B [6, 9] | Current ratio I/Icontrol (mean ± SEM, %) GluN2D [4] | SMILES
9 | 91 ± 3.5 | – | 98 ± 4.1 | – | 82 ± 1.1 | – | – | – | 74 ± 7.1 | – | – | – | – | – | – | O=C(O)CC(F)(F)C(=O)N1N=C(c2cnccc2-c2ccccc2)CC1c1ccc(Cl)cc1 (stereo not drawn) [Compound 15, 4-[3-(4-Chlorophenyl)-5-(4-phenyl-3-pyridyl)-3,4-dihydropyrazol-2-yl]-3,3-difluoro-4-oxo-butanoic acid]
10 | 61 ± 1 | 55 | 104 ± 2.2 | – | 96 ± 2.4 | – | – | – | 39 ± 1.7 | 20 | – | – | – | – | – | O=C(O)CC(F)(F)C(=O)N1N=C(c2c(-c3ccc(Cl)cc3)cc[nH]c2=O)CC1c1ccc(Cl)cc1 (stereo not drawn) [Compound 28, 4-[3-(4-Chlorophenyl)-5-[4-(4-chlorophenyl)-2-oxo-1H-pyridin-3-yl]-3,4-dihydropyrazol-2-yl]-3,3-difluoro-4-oxo-butanoic acid]
11 | 35 ± 0.84 | 15 | 74 ± 3.4 | – | 79 ± 4.3 | – | – | – | 27 ± 2.3 | 12 | – | – | – | – | – | O=C(O)CC(F)(F)C(=O)N1N=C(c2cnccc2-c2ccc(Cl)cc2)CC1c1ccc(Cl)cc1 (stereo not drawn) [Compound 29, 4-[3-(4-Chlorophenyl)-5-[4-(4-chlorophenyl)-3-pyridyl]-3,4-dihydropyrazol-2-yl]-3,3-difluoro-4-oxo-butanoic acid]
12 | 111 ± 1.9 | – | 100 ± 2 | – | 100 ± 2.7 | – | – | – | 110 ± 3.1 | – | – | – | – | – | – | Cc1cc(-c2ccc(Cl)cc2)c(C2=NN(C(=O)C(F)(F)CC(=O)O)C(c3ccc(Cl)cc3)C2)cn1 (stereo not drawn) [Compound 73, 4-[3-(4-Chlorophenyl)-5-[4-(4-chlorophenyl)-6-methyl-3-pyridyl]-3,4-dihydropyrazol-2-yl]-3,3-difluoro-4-oxo-butanoic acid]
